{"source": "patent US20070141571A1", "about": "“Diagnostics and therapeutics for diseases associated with endothelial differentiation, sphingolipid g-protein-coupled receptor 6(edg6)” (BAYER HEALTHCARE AG, priority 2003, published 2007)", "key": {"[1]": {"test_system": "HEL/EDG6 platelet-like particles", "test": "PF4 release from platelet-like particles", "format": "cell-based, human", "settings": "100 nM PMA or 50 μM ADP 10 min; 0.5 units/ml thrombin 2 min; data not shown", "description": "During propagation of HEL/EDG6, we observed an accumulation of small particles in the culture supernatant. They were harvested by two-step sedimentation centrifugation and analyzed. […] In order to investigate if the platelet-like particles were functional, they were stimulated and the release of Platelet Factor IV (PF4) was measured as a platelet functional marker. […] The low sensitivity to ADP raised a question about the full functionality of the particles as platelets. In order to examine whether it is due to lack of the appropriate ADP receptors, we performed RT-PCR analysis. There are two ADP receptors identified in platelets, ubiquitous P2Y1, and platelet-specific P2Y12. We detected P2Y1 expression in HEL cells stably transformed with an empty vector (HEL/CV), HEL/EDG6, and platelets. In contrast, P2Y12 was detected in HEL/EDG6 and platelets, but not in HEL/CV. […] The low responsiveness of the particles to ADP thus is likely due to desensitization of the ADP receptors, since the particles were prepared from a long-term culture and had been inevitably exposed to cellular components during culture. Alternatively the density of the particles may not have been high enough to exert a positive feedback amplified by mediators released from nearby particles.\nIsolation of platelets and platelet-like particles: Blood from healthy donors was collected into centrifuge tubes containing 20 mM sodium dyhydrogenphosphate dehydrate, 17 mM citric acid, 90 mM sodium citrate, and 13 mM Dextrose. HEL/S1P4 cells were cultured until cells released cytoplasmic particles (typically 10-18 days). Preparations were centrifuged at 200 g for 15 minutes. Supernatants obtained were centrifuged at 1600 g for 15 minutes. Sediments containing platelets or platelet-like particles were used in the experiments.\nPF4 release: Platelet-like particles were suspended in Dulbecco's modified Eagle medium (DMEM) and stimulated with 100 nM PMA or 50 μM ADP for 10 minutes. […] Platelet factor 4 in supernatants was measured with ZymutestPF4 enzyme-linked immunosorbent assay (Hyphen BioMed, France)."}, "HEL/EDG6 cells [2]": {"test_system": "HEL/EDG6 cells", "test": "morphogenesis assay, HEL/EDG6", "format": "cell-based, human", "settings": "72 hours", "description": "(§1) To obtain an insight into potential mechanisms, we treated HEL/EDG6 and HEL/CV with a variety of cytoskeletal modulators in the presence of PMA. […] To test if suppression of the Rho-kinase pathway is responsible for the formation of cytosolic extensions, the cells were treated with C3 exoenzyme, a Rho inhibitor, before PMA treatment. […] Alternatively, activation of other Rho family GTPases might cause the process formation, since reciprocal regulation between Rho and Rac/Cdc42 is observed in some cell types [E. E. Sandera, et al., (1999)]. Activation of Rho, Rac, and Cdc42, were investigated in HEL/CV and HEL/EDG6 after serum starvation and subsequent stimulation with S1P."}, "HEL cells": {"test_system": "HEL cells", "test": "morphogenesis assay, HEL parental cells", "format": "cell-based, human", "settings": "PMA 10 nM, 72 hours", "excerpt": "Small particles (arrowhead) and a particle about to bud off from the cytosolic extension (arrow) are seen in HEL/S1P4 treated with PMA.\nAs reported, HEL parental cells develop into polyploidal large adherent cells with PMA treatment. […] Depositions of small particles and particles about to bud off from the end of the projections were also observed (FIG. 7). […] The observed prominent change of phenotype, thus can potentially be attributed to a rapid accumulation of S1P after treatment of PMA. As PMA is a pleiotropic substance, it is not easy to elucidate direct roles of sphingosine kinase in the phenomena.\nMorphogenesis assay: Ten million cells were plated on a 24-well plate with or without 30 μM of the Rho-kinase inhibitor Y27632 (Calbiochem, CA). PMA (10 nM final) was added to the culture 30 minutes after plating. Cells were cultured for 72 hours and photographed. For studies using C3 exoenzyme, 2×10^5 cells in 0.5 ml culture medium were plated on a 24-well plate with or without 3 μg/ml of C3 exsoenzyme (Upstate, N.Y.), and cultured overnight. Fresh culture medium containing PMA and C3 exoenzyme was added to each well to give final PMA and C3 exoenzyme concentrations at 10 nM and 3 μg/ml, respectively. Cells were cultured for 72 hours and photographed."}, "[3]": {"test_system": "CD34+ hematopoietic progenitor cells", "test": "megakaryocyte colony formation assay", "format": "cell-based, human", "description": "Mean colony number per well of CD41 positive (CFU-MK) and negative (non-MK) colonies are plotted with SD (n=4 to 8, left panels). […] The experiment was repeated twice with each progenitor and obtained similar results. # • (B) Megakaryocyte differentiation was induced for 12 days from the CD34^+ progenitor cells and the cells were separated for CD41 expression. RNAs from non-differentiated cells (Day 0), differentiated cells (Day 12), and peripheral platelets were analyzed for expression of S1P receptors by RT-PCR. Expression of 2-microglobulin is shown as an internal control.\nS1P was added to a megakaryocyte colony formation assay using CD34^+ hematopoietic progenitor cells in semi-solid culture. […] In order to examine the expression pattern of each S1P receptor during the in vitro maturation of megakaryocytes, CD34^+ progenitor cells were cultured in a liquid medium defined for megakaryocyte development, sorted for CD41 expression on day 12 of the culture, and subjected to RT-PCR analysis. Expression of S1P5 receptor in CD34^+ cells on day 0 was low and S1P1, S1P2, S1P3, and EDG6 were not detectable after 40 cycles (FIG. 6B). […] The pattern matched, although with different relative band intensities for EDG6 and S1P2, with the one seen in the platelet sample. […] The exact mechanisms by which S1P affects the differentiation however, remain to be elucidated. Among the receptors for S1P, we were most interested in the function of EDG6 in megakaryocytopoiesis, because EDG6 is expressed in the lung, and the lung is the second most prominent site of platelet production in body with a large population of terminally differentiated megakaryocytes in pulmonary microvessels. […]\nColony formation assay and preparation of CD41^+ cells: Cord blood CD34^+ cells and bone marrow CD34^+ cells (Bio Whittaker, Md.) were cultured in serum-free Iscove's modified Dulbecco's medium for 2 days. […] The chambers were incubated at 37° C. in a 5% CO2 atmosphere for 12 days then megakaryocyte colonies (CFU-MK) were stained for CD41 and scored following the manufacturer's procedure. […]"}, "HEL/EDG6 cells [4]": {"test_system": "HEL/EDG6 cells", "test": "Rho, Rac and cdc42 assays, HEL/EDG6", "format": "cell-based, human", "settings": "HEL/EDG6, serum starvation, 1 μM S1P 1 minute", "description": "as §1\n(§2) Rho, Rac and cdc42 assays: Cells (5×10^6 for Cdc42 and Rac, 1×10^7 for Rho) were harvested and lysed with 50 mM Tris (pH 7.5), 100 mM NaCl, 1% Triton X-100, 5 mM MgCl2 containing protease inhibitors (Complete™, EDTA-free, Roche Diagnostics, Germany). Cell lysates were clarified by centrifugation at 15000 g at 4° C. for 5 minutes, and incubated with PAK-1 PBD agarose, Rhotekin RBD agarose (Upstate, N.Y.) and GST-WASP GBD beads idndly provided by Tatsuo Kinashi, Kyoto University) at 4° C. for 45 minutes with constant rotation. […] The amounts of Rho, Rac, cdc42, and WASP in 20 μg of whole cell lysates were also analyzed by Western Blot. After incubating with HRP-conjugated secondary antibodies, the blots were developed with ECL-Plus (Amersham Biosciences, UK). For examination of Rho, Rac and cdc42 responses to S1P treatment, cells were maintained in RPMI1640 containing 0.1% fatty-acid free BSA (Sigma) overnight. Cells were harvested and suspended in PBS, and stimulated with 1 μM S1P at 37° C. for 1 minute before cell lysis. Rho, Rac, and cdc42 in 20 μg of the whole cell lysates were also analyzed by Western blot for examination of protein expression. WASP in 20 μg of the whole cell lysates was detected using an anti-WASP antibody (Sigma, Mo.)."}, "HEL/CV cells [5]": {"test_system": "HEL/CV cells", "test": "Rho, Rac and cdc42 assays, HEL/CV", "format": "cell-based, human", "settings": "serum starvation, 1 μM S1P 1 minute", "description": "as §1, §2"}, "Edg-6 [6]": {"molecular_target": "T1, Edg-6 (Homo sapiens, UniProt O95977)", "T1 construct": "host or cells: Edg-6-transfected Chinese hamster ovary (CHO) cells and K562 cells", "T1 sequence (O95977 1-384)": "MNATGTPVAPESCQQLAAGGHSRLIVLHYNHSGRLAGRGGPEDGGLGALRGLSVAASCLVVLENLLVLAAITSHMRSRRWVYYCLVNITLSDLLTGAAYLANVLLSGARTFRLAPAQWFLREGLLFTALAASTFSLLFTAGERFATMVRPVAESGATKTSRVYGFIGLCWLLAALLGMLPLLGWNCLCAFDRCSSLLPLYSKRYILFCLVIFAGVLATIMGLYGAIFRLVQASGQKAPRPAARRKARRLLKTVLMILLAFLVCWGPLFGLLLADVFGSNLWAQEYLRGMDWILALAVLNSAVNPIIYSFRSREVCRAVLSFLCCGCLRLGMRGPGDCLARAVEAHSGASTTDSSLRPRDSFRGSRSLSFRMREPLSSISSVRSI", "settings": "Edg-6-transfected CHO and K562 cells; cited from earlier work"}, "Edg-6 [7]": {"molecular_target": "T1, Edg-6", "settings": "cited from earlier work; for increase in cytosolic Ca(2+) concentration: Edg-6-transfected CHO cells compared with vector-transfected cells"}, "HEL/CV cells [8]": {"test_system": "HEL/CV cells", "test": "morphogenesis assay, HEL/CV", "format": "cell-based, human", "settings": "with PMA 10 nM, Y27632 30 μM or C3 exoenzyme 3 μg/ml, 72 hours", "description": "as §1"}}, "data": [{"compound": "Nc1ncnc2c1ncn2[C@@H]1O[C@H](COP(=O)(O)OP(=O)(O)O)[C@@H](O)[C@H]1O", "note": "[ADP]", "values": [{"measurement": "release of Platelet Factor IV (PF4)", "setting": "[1]", "result": "only minor amounts"}]}, {"compound": "CCCCCCCCCCCCCC(=O)O[C@@H]1[C@@H](C)[C@@]2(O)[C@@H](C=C(CO)C[C@]3(O)C(=O)C(C)=C[C@@H]23)[C@@H]2C(C)(C)[C@]12OC(C)=O", "note": "[PMA]", "values": [{"measurement": "release of Platelet Factor IV (PF4)", "setting": "[1]", "result": "significant amounts"}, {"measurement": "cell morphology after PMA treatment", "setting": "HEL/EDG6 cells [2]; HEL/EDG6, PMA 10 nM", "result": "formation of polyploidal large adherent cells with extended cytoplasmic projections resembling megakaryocyte processes"}, {"measurement": "cell morphology after PMA treatment", "setting": "HEL cells", "result": "induced large adherent cells"}]}, {"compound": "CCCCCCCCCCCCC/C=C/[C@@H](O)[C@@H](N)COP(=O)(O)O", "note": "[S1P, sphingosine 1-phosphate]", "values": [{"measurement": "number of megakaryocyte colony forming units (CFU-MK)", "setting": "[3]; 10 μM S1P at beginning of culture, CD34+ cells from bone marrow and cord blood, 12 days", "result": "significantly reduced"}, {"measurement": "CFU-nonMK numbers", "setting": "[3]; 10 μM S1P, CD34+ cells from bone marrow and cord blood", "result": "remained unchanged or increased slightly"}, {"measurement": "% CFU-MK", "setting": "[3]; 10 μM S1P, cord blood or bone marrow CD34+ cells, Student's t-test", "result": "Significantly lower"}, {"measurement": "GTP-Rac", "setting": "HEL/EDG6 cells [4]", "result": "up-regulation"}, {"measurement": "GTP-Cdc42", "setting": "HEL/EDG6 cells [4]; data not shown", "result": "increased"}, {"measurement": "GTP-Rho", "setting": "HEL/EDG6 cells [4]; data not shown", "result": "decreased"}, {"measurement": "GTP-Rac", "setting": "HEL/CV cells [5]", "result": "up-regulation"}, {"measurement": "GTP-Cdc42 increase", "setting": "HEL/CV cells [5]; data not shown", "result": "not in HEL/CV cells"}, {"measurement": "GTP-Rho decrease", "setting": "HEL/CV cells [5]; data not shown", "result": "not in HEL/CV cells"}, {"measurement": "displacement of [(3)H]S1P binding", "setting": "Edg-6 [6]", "result": "displaced the [(3)H]S1P binding"}, {"measurement": "increase in cytosolic Ca(2+) concentration", "setting": "Edg-6 [7]", "result": "clearly enhanced"}]}, {"compound": "CCCCCCCCCCCCC/C=C/[C@@H](O)[C@@H](N)COP(=O)([O-])OCC[N+](C)(C)C", "note": "[SPC]", "values": [{"measurement": "displacement of [(3)H]S1P binding", "setting": "Edg-6 [6]", "result": "displaced the [(3)H]S1P binding"}, {"measurement": "increase in cytosolic Ca(2+) concentration", "setting": "Edg-6 [7]", "result": "clearly enhanced"}]}, {"compound": "C[C@@H](N)[C@H]1CC[C@H](C(=O)Nc2ccncc2)CC1", "note": "[Y27632]", "values": [{"measurement": "cytosolic extensions / morphology with cytoskeletal modulator", "setting": "HEL/EDG6 cells [2]; HEL/EDG6, with PMA 10 nM, Y27632 30 μM or C3 exoenzyme 3 μg/ml", "result": "did not induce any further effect"}, {"measurement": "cytosolic extensions / morphology with cytoskeletal modulator", "setting": "HEL/CV cells [8]", "result": "induced cytosolic extensions"}]}, {"compound": "lysophosphatidic acid [LPA]", "values": [{"measurement": "displacement of [(3)H]S1P binding", "setting": "Edg-6 [6]", "result": "inactive"}, {"measurement": "increase in cytosolic Ca(2+) concentration", "setting": "Edg-6 [7]", "result": "without change"}]}, {"compound": "pertussis toxin", "values": [{"measurement": "effect on lipid-induced actions (S1P, SPC)", "setting": "Edg-6 [7]; CHO and K562 cells expressing Edg-6, pertussis toxin treatment", "result": "markedly suppressed"}]}, {"compound": "thrombin", "values": [{"measurement": "release of Platelet Factor IV (PF4)", "setting": "[1]", "result": "significant amounts"}]}]}
